The experiment deals with recombinant human Nav1.7 (Homo sapiens (Human), UniProt Q15858). As to the kind of experiment: FRET-based membrane potential assay, recombinant human sodium channel Nav1.7. In kind it is cell-based. As to conditions: read-out: FRET-Membrane Potential Nav1.7 IC50. The method, then:
FRET-Based Membrane Potential Assays.
Recombinant, Human Sodium Channel, Nav1.7.
On the day of the assay, medium was removed by aspiration, and cells were washed with assay buffer [HBSS (Invitrogen, Carlsbad, Calif.) containing 20 mM HEPES (Invitrogen, Carlsbad, Calif.)]. […] Cells were incubated for 40 minutes at room temperature in the dark. […] The cells were incubated for 90 minutes at room temperature in the dark. Fluorescence readings were made using a FLIPR®^TETRA (Molecular Devices, Sunnyvale Calif.) equipped with voltage-sensor probe optics. At the start of each experiment the optimal (EC80) concentration of depolarizing agent (veratridine) was determined by testing a dilution curve of assay buffer containing veratridine (Sigma-Aldrich, St. Louis, Mo.) and 1 mg/mL scorpion venom (SVqq, from Leiurus quinquestriatus; Sigma-Aldrich, St. Louis, Mo.). […] Test compounds in the daughter plate were diluted to (˜3×) solutions in assay buffer immediately before assaying. Using the FLIPR®^TETRA, 20 μL of the (3×) compound solutions were first added to the cells, then 20 μL of depolarizing solution (3×EC80 veratridine+SVqq) were added 3 minutes later to activate the channel. […] IC50 values were calculated from curve fits of the ratio data using a four-parameter logistic Hill equation (Accelrys Assay Explorer 3.3 Client, Accelrys, San Diego, Calif.) with percent inhibition plotted against compound concentration.

Setting [1] is: HEK293 cells stably expressing recombinant human Nav1.7, veratridine + scorpion venom depolarization.

Where two headings read alike, the source gives them in different places.

This is an account of results in patent US9452986B2, “6-heteroaryloxy- or 6-aryloxy-quinoline-2-carboxamides and method of use” (AbbVie Inc., priority 2014, dated 2016).

Sequence of recombinant human Nav1.7 (Q15858 whole entry): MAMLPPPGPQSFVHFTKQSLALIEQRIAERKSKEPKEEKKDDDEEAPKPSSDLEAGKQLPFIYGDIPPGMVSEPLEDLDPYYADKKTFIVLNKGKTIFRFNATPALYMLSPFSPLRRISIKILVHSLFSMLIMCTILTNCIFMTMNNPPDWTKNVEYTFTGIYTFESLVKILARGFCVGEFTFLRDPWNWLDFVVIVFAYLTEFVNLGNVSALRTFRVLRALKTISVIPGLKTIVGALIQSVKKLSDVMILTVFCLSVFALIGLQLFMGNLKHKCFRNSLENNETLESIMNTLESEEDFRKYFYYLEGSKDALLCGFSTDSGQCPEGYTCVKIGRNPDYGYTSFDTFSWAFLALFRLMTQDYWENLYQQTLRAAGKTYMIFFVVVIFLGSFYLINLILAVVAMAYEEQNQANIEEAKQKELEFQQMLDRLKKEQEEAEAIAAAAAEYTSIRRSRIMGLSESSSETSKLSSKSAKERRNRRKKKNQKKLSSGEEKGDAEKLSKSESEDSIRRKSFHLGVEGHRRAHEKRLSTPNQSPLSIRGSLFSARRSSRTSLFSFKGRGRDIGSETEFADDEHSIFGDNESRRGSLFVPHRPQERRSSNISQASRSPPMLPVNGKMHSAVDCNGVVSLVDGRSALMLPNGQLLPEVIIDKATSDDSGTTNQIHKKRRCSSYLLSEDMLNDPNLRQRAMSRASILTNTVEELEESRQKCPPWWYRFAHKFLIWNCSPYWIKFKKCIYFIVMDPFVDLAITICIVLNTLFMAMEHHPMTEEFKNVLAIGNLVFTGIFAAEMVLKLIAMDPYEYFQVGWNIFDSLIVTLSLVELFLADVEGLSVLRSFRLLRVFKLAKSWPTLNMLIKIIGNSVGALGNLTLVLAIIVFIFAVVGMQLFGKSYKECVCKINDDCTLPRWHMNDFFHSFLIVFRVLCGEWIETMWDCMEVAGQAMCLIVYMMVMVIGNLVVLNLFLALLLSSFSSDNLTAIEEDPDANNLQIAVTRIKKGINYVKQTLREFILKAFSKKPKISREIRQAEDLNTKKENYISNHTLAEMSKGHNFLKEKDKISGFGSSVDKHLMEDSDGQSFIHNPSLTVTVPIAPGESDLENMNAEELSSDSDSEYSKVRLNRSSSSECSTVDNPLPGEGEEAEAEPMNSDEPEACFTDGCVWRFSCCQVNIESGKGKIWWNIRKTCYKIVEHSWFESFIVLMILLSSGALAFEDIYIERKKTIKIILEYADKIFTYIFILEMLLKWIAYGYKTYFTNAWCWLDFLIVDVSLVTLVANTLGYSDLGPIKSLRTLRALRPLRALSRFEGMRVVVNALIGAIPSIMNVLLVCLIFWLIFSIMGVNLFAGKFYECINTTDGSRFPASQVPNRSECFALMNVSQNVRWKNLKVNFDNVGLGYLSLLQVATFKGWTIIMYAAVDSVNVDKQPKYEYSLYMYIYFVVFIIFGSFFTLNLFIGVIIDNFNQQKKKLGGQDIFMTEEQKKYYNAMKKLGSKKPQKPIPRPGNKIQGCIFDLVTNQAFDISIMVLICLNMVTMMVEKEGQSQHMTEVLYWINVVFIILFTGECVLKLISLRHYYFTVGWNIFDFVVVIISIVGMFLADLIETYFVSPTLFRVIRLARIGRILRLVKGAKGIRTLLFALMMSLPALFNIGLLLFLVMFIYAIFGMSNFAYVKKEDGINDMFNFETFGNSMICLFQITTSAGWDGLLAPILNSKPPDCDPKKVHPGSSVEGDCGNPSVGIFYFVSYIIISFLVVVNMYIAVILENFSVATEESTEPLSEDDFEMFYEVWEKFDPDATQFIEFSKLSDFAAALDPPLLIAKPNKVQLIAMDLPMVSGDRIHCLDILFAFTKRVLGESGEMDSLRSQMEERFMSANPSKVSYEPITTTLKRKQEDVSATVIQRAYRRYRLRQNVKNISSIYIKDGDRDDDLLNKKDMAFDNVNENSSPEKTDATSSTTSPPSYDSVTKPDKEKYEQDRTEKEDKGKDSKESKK

Turning to `CC1[C@@H](O)[C@@H](O)C(C)N1C(=O)c1ccc2cc(Oc3ccc(C(F)(F)F)cn3)ccc2n1` (mixture of isomers) [Example 323, rac-[(3R,4S)-3,4-dihydroxy-2,5-dimethylpyrrolidin-1-yl](6-{[5-(trifluoromethyl)pyridin-2-yl]oxy}quinolin-2-yl)methanone], the IC50 under setting [1] is greater than 20 µM.

With `CC1(CO)CN(C(=O)c2ccc3cc(Oc4ccc(C(F)(F)F)cn4)ccc3n2)C1` [Example 207, [3-(hydroxymethyl)-3-methylazetidin-1-yl](6-{[5-(trifluoromethyl)pyridin-2-yl]oxy}quinolin-2-yl)methanone], the 50% inhibitory concentration (IC50) is 3.65 µM.

Regarding `O=C(c1ccc2cc(Oc3ccc(C(F)(F)F)cn3)ccc2n1)N1CCN(c2ccc(Cl)cn2)CC1` [Example 272, [4-(5-chloropyridin-2-yl)piperazin-1-yl](6-{[5-(trifluoromethyl)pyridin-2-yl]oxy}quinolin-2-yl)methanone], the half-maximal inhibitory concentration (IC50) under setting [1] turned out to be 2.99 µM.

As for `O=C(c1ccc2cc(Oc3ccc(C(F)(F)F)cn3)ccc2n1)N1CCN(CC(F)F)CC1` [Example 298, [4-(2,2-difluoroethyl)piperazin-1-yl](6-{[5-(trifluoromethyl)pyridin-2-yl]oxy}quinolin-2-yl)methanone], the IC50 under setting [1] stood at 12.3 µM.

Consider `COC(C)CNC(=O)c1ccc2cc(Oc3ccc(C(F)(F)F)cn3)ccc2n1` (stereo not shown) [Example 590, N-(2-methoxypropyl)-6-{[5-(trifluoromethyl)pyridin-2-yl]oxy}quinoline-2-carboxamide], for which the IC50 under setting [1] came out at 1 µM.

For the compound `N#Cc1ccc(Oc2ccc3nc(C(=O)NCCN4CCCCC4)ccc3c2)cc1` [Example 82, 6-(4-cyanophenoxy)-N-[2-(piperidin-1-yl)ethyl]quinoline-2-carboxamide], the IC50 came out at 0.222 µM.

As to `O=C(c1ccc2cc(Oc3ccc(C(F)(F)F)cn3)ccc2n1)N1CCC2(CC1)CC(O)C2` [Example 354, (2-hydroxy-7-azaspiro[3.5]non-7-yl)(6-{[5-(trifluoromethyl)pyridin-2-yl]oxy}quinolin-2-yl)methanone], the concentration for half-maximal inhibition (IC50) under setting [1] is 12.4 µM.

Take `O=C(c1ccc2cc(Oc3ccc(C(F)(F)F)cn3)ccc2n1)N1CCN(S(=O)(=O)C2CCOC2)CC1` (stereo not shown) [Example 381, [4-(tetrahydrofuran-3-ylsulfonyl)piperazin-1-yl](6-{[5-(trifluoromethyl)pyridin-2-yl]oxy}quinolin-2-yl)methanone]: the IC50 under setting [1] was 3.41 µM.

Regarding `CC(=O)C1CN(C(=O)c2ccc3cc(Oc4ccc(C(F)(F)F)cn4)ccc3n2)C1` [Example 506, 1-{1-[(6-{[5-(trifluoromethyl)pyridin-2-yl]oxy}quinolin-2-yl)carbonyl]azetidin-3-yl}ethanone], under setting [1], the IC50 turned out to be 0.781 µM.

With `O=C(NCC(=O)N1CC[C@@H](O)C1)c1ccc2cc(Oc3ccc(C(F)(F)F)cn3)ccc2n1` [Example 559, N-{2-[(3R)-3-hydroxypyrrolidin-1-yl]-2-oxoethyl}-6-{[5-(trifluoromethyl)pyridin-2-yl]oxy}quinoline-2-carboxamide], the IC50 is 3.02 µM.

Turning to `CN(C)C(=O)[C@@H]1CCCN1C(=O)c1ccc2cc(Oc3ccc(C(F)F)cn3)ccc2n1` [Example 465, 1-[(6-{[5-(difluoromethyl)pyridin-2-yl]oxy}quinolin-2-yl)carbonyl]-N,N-dimethyl-L-prolinamide], under setting [1], the IC50 is greater than 20 µM.

`Cc1ccc(CNC(=O)c2ccc3cc(Oc4ccc(C#N)cc4)ccc3n2)o1` [Example 99, 6-(4-cyanophenoxy)-N-[(5-methyl-2-furyl)methyl]quinoline-2-carboxamide]: the IC50 under setting [1] was 5.05 µM.

As for `O=C(c1ccc2cc(Oc3ccc(C(F)(F)F)cn3)ccc2n1)N1C[C@H]2CNC[C@H]2C1` [Example 164, (3 aR,6aS)-hexahydropyrrolo[3,4-c]pyrrol-2(1H)-yl(6-{[5-(trifluoromethyl)pyridin-2-yl]oxy}quinolin-2-yl)methanone], the IC50 under setting [1] came out at 12.7 µM.

In the case of `O=C(N[C@@H]1CC[C@H]2CN(Cc3ccccc3)C[C@H]21)c1ccc2cc(Oc3ccc(C(F)(F)F)cn3)ccc2n1` [Example 230, N-[(3aS,4R,6aR)-2-benzyloctahydrocyclopenta[c]pyrrol-4-yl]-6-{[5-(trifluoromethyl)pyridin-2-yl]oxy}quinoline-2-carboxamide], the IC50 is 0.259 µM.

As for `O=C(c1ccc2cc(Oc3ccc(C(F)(F)F)cn3)ccc2n1)N1CC(n2cncn2)C1` [Example 204, [3-(1H-1,2,4-triazol-1-yl)azetidin-1-yl](6-{[5-(trifluoromethyl)pyridin-2-yl]oxy}quinolin-2-yl)methanone], the IC50 under setting [1] is 1.63 µM.

On to `O=C(c1ccc2cc(Oc3ccc(C(F)(F)F)cn3)ccc2n1)N1C[C@H](O)C[C@H]1CO` [Example 300, [(2S,4R)-4-hydroxy-2-(hydroxymethyl)pyrrolidin-1-yl](6-{[5-(trifluoromethyl)pyridin-2-yl]oxy}quinolin-2-yl)methanone], for which the IC50 under setting [1] was greater than 20 µM.

As for `N#Cc1ccc(Oc2ccc3nc(C(=O)N4CCNCC4)ccc3c2)cc1` [Example 112, 4-{[2-(piperazin-1-ylcarbonyl)quinolin-6-yl]oxy}benzonitrile], the concentration for half-maximal inhibition (IC50) was found to be 1.48 µM.

For the compound `N#Cc1ccc(Oc2ccc3nc(C(=O)N4CCC(N5CCOCC5)CC4)ccc3c2)cc1` [Example 138, 4-[(2-{[4-(morpholin-4-yl)piperidin-1-yl]carbonyl}quinolin-6-yl)oxy]benzonitrile], the IC50 under setting [1] was 2.47 µM.

As to `CC[C@H]1CN(C(=O)c2ccc3cc(Oc4ccc(C(F)(F)F)cn4)ccc3n2)CCN1` [Example 273, [(3S)-3-ethylpiperazin-1-yl](6-{[5-(trifluoromethyl)pyridin-2-yl]oxy}quinolin-2-yl)methanone], the IC50 under setting [1] came out at 0.488 µM.

For `N#CC1CCN(C(=O)c2ccc3cc(Oc4ccc(C(F)(F)F)cn4)ccc3n2)CC1` [Example 474, 1-[(6-{[5-(trifluoromethyl)pyridin-2-yl]oxy}quinolin-2-yl)carbonyl]piperidine-4-carbonitrile], the IC50 under setting [1] is 9.1 µM.

In the case of `O=C1CC(NC(=O)c2ccc3cc(Oc4ccc(C(F)(F)F)nc4)ccc3n2)C1` [Example 556, N-(3-oxocyclobutyl)-6-{[6-(trifluoromethyl)pyridin-3-yl]oxy}quinoline-2-carboxamide], the IC50 was found to be 2.81 µM.

For the compound `O=C(c1ccc2cc(Oc3ccc(C(F)(F)F)cn3)ccc2n1)N1CCC(F)(COc2cccnc2)C1` (stereo not shown) [Example 490, {3-fluoro-3-[(pyridin-3-yloxy)methyl]pyrrolidin-1-yl}(6-{[5-(trifluoromethyl)pyridin-2-yl]oxy}quinolin-2-yl)methanone], the IC50 under setting [1] came out at 1.42 µM.

Turning to `N#Cc1ccc(Oc2ccc3nc(C(=O)NCc4cccs4)ccc3c2)cc1` [Example 92, 6-(4-cyanophenoxy)-N-(2-thienylmethyl)quinoline-2-carboxamide], the IC50 under setting [1] was found to be 9.83 µM.

`O=C(NCCN1CCCC1=O)c1ccc2cc(Oc3ccc(C(F)(F)F)cn3)ccc2n1` [Example 337, N-[2-(2-oxopyrrolidin-1-yl)ethyl]-6-{[5-(trifluoromethyl)pyridin-2-yl]oxy}quinoline-2-carboxamide]: the IC50 was 1.66 µM.

`O=C(NCCC(=O)N1CCCCC1)c1ccc2cc(Oc3ccc(C(F)(F)F)nc3)ccc2n1` [Example 520, N-[3-oxo-3-(piperidin-1-yl)propyl]-6-{[6-(trifluoromethyl)pyridin-3-yl]oxy}quinoline-2-carboxamide]: under setting [1], the IC50 was determined as 0.945 µM.
